From PubChem BioAssay AID248 (DTP/NCI, 2004)
Values joined by “and” are separate entries in the source; they are usually repeats but may differ in a detail not shown here. Equal entries are not always repeated. Toxic doses and inconclusive results are not listed.

Tested on: L1210 leukemia ip in BDF1 mice, survival T/C
Experiment: NCI In Vivo Anticancer Drug Screen. Data for tumor model L1210 Leukemia (intraperitoneal) in B6D2F1 (BDF1) mice
Conditions: endpoint: mean survival time, higher = longer survival
In short: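 Read-out is survival time, reported as the treated-group measurement over the vehicle-control measurement.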

[1] = dose: 100.0 mg/kg/injection, schedule: Q01DX001 (ip), vehicle: saline
[2] = dose: 200.0 mg/kg/injection, schedule: Q01DX001 (ip), vehicle: saline
[3] = dose: 400.0 mg/kg/injection, schedule: Q01DX001 (ip), vehicle: saline
[4] = dose: 100.0 mg/kg/injection, schedule: Q01DX001 (ip), vehicle: Klucel (hydroxypropylcellulose) (HPC)
[5] = dose: 100.0 mg/kg/injection, schedule: Q04DX003 (ip), vehicle: Klucel (hydroxypropylcellulose) (HPC)
[6] = dose: 200.0 mg/kg/injection, schedule: Q01DX001 (ip), vehicle: Klucel (hydroxypropylcellulose) (HPC)
[7] = dose: 200.0 mg/kg/injection, schedule: Q04DX003 (ip), vehicle: Klucel (hydroxypropylcellulose) (HPC)
[8] = dose: 400.0 mg/kg/injection, schedule: Q01DX001 (ip), vehicle: Klucel (hydroxypropylcellulose) (HPC)
[9] = dose: 400.0 mg/kg/injection, schedule: Q04DX003 (ip), vehicle: Klucel (hydroxypropylcellulose) (HPC)
[10] = dose: 200.0 mg/kg/injection, schedule: Q01DX009 (ip), vehicle: saline with Tween-80
[11] = dose: 100.0 mg/kg/injection, schedule: Q01DX009 (ip), vehicle: saline with Tween-80
[12] = dose: 400.0 mg/kg/injection, schedule: Q01DX009 (ip), vehicle: saline with Tween-80

Compound: O=P(NC12CC3CC(CC(C3)C1)C2)(OCc1ccccc1)OCc1ccccc1
- T/C (dose: 75.0 mg/kg/injection, schedule: Q01DX009 (ip), vehicle: Klucel (hydroxypropylcellulose) (HPC)): 97 % of control
- T/C (dose: 150.0 mg/kg/injection, schedule: Q01DX009 (ip), vehicle: Klucel (hydroxypropylcellulose) (HPC)): 90 % of control
- T/C (dose: 300.0 mg/kg/injection, schedule: Q01DX009 (ip), vehicle: Klucel (hydroxypropylcellulose) (HPC)): 95 % of control

Compound: CC1=C(Sc2ccccc2)c2ccccc2C1
- T/C [1]: 86 % of control
- T/C [2]: 91 % of control
- T/C [3]: 91 % of control

Compound: CCCNC(=O)c1cccc(-c2cccc(C(=O)NCCC)c2)c1
- T/C (dose: 200.0 mg/kg/injection, schedule: Q01DX001 (ip), vehicle: other): 93 % of control

Compound: C[N+]1(Cc2ccccc2)CCC2(C(N)=O)CC1Cc1ccccc12 (stereo not drawn)
- T/C (dose: 75.0 mg/kg/injection, schedule: Q01DX001 (ip), vehicle: other): 105 % of control
- T/C (dose: 150.0 mg/kg/injection, schedule: Q01DX001 (ip), vehicle: other): 100 % of control
- T/C (dose: 300.0 mg/kg/injection, schedule: Q01DX001 (ip), vehicle: other): 93 % of control

Compound: C1CCC2C(C1)NC1CCCCC12 (stereo not drawn)
- T/C (dose: 100.0 mg/kg/injection, schedule: Q04DX003 (ip), vehicle: saline): 97 % of control

Compound: Cc1ncc(C(=O)O)n1C(C)c1ccccc1 (stereo not drawn)
- T/C [4]: 100 % of control
- T/C (dose: 100.0 mg/kg/injection, schedule: Q01DX009 (ip), vehicle: Klucel (hydroxypropylcellulose) (HPC)): 94 % of control and 104 % of control
- T/C (dose: 100.0 mg/kg/injection, schedule: Q04DX002 (ip), vehicle: Klucel (hydroxypropylcellulose) (HPC)): 94 % of control and 100 % of control and 102 % of control
- T/C [5]: 93 % of control
- T/C [6]: 109 % of control
- T/C (dose: 200.0 mg/kg/injection, schedule: Q01DX009 (ip), vehicle: Klucel (hydroxypropylcellulose) (HPC)): 100 % of control
- T/C (dose: 200.0 mg/kg/injection, schedule: Q04DX002 (ip), vehicle: Klucel (hydroxypropylcellulose) (HPC)): 94 % of control and 99 % of control and 100 % of control
- T/C [7]: 95 % of control
- T/C [8]: 96 % of control
- T/C (dose: 400.0 mg/kg/injection, schedule: Q01DX009 (ip), vehicle: Klucel (hydroxypropylcellulose) (HPC)): 97 % of control and 100 % of control
- T/C (dose: 400.0 mg/kg/injection, schedule: Q04DX002 (ip), vehicle: Klucel (hydroxypropylcellulose) (HPC)): 98 % of control and 103 % of control and 104 % of control
- T/C [9]: 96 % of control

Compound: NC(=O)c1cc([N+](=O)[O-])ccc1N=NN(CCCl)CCCl
- T/C (dose: 100.0 mg/kg/injection, schedule: Q04DX003 (ip), vehicle: saline with Tween-80): 114 % of control
- T/C (dose: 177.0 mg/kg/injection, schedule: Q04DX003 (ip), vehicle: saline with Tween-80): 111 % of control
- T/C [10]: 107 % of control
- T/C (dose: 266.0 mg/kg/injection, schedule: Q04DX003 (ip), vehicle: saline with Tween-80): 114 % of control
- T/C (dose: 400.0 mg/kg/injection, schedule: Q04DX003 (ip), vehicle: saline with Tween-80): 165 % of control

Compound: CCOc1nc(N)c(C(N)=O)cc1C#N
- T/C (dose: 100.0 mg/kg/injection, schedule: Q04DX003 (ip), vehicle: saline sonified): 98 % of control
- T/C (dose: 200.0 mg/kg/injection, schedule: Q04DX003 (ip), vehicle: saline sonified): 105 % of control

Compound: CCOC(=O)c1sc2cc[nH]c2c1O
- T/C (dose: 50.0 mg/kg/injection, schedule: Q01DX001 (ip), vehicle: Klucel (hydroxypropylcellulose) (HPC)): 102 % of control
- T/C [4]: 100 % of control
- T/C [6]: 94 % of control

Compound: Nc1ccccc1Sc1ccc(C(=O)O)cc1[N+](=O)[O-]
- T/C [5]: 104 % of control
- T/C [7]: 96 % of control
- T/C [9]: 100 % of control

Compound: CC(Br)CCON1C(=O)c2ccccc2C1=O (stereo not drawn)
- T/C (dose: 50.0 mg/kg/injection, schedule: Q01DX001 (ip), vehicle: saline): 112 % of control
- T/C [1]: 102 % of control
- T/C [2]: 96 % of control
- T/C [3]: 96 % of control

Compound: O=CC(O)C(O)C(Cl)C(O)CCl (stereo not drawn)
- T/C (dose: 100.0 mg/kg/injection, schedule: Q04DX002 (ip), vehicle: saline with Tween-80): 90 % of control
- T/C (dose: 200.0 mg/kg/injection, schedule: Q04DX002 (ip), vehicle: saline with Tween-80): 97 % of control
- T/C (dose: 400.0 mg/kg/injection, schedule: Q04DX002 (ip), vehicle: saline with Tween-80): 93 % of control

Compound: CN(C)c1ccc(/C=C2\C=Cc3ccccc32)cc1F
- T/C (dose: 100.0 mg/kg/injection, schedule: Q01DX001 (ip), vehicle: carboxymethylcellulose (CMC)): 92 % of control
- T/C [11]: 100 % of control
- T/C (dose: 200.0 mg/kg/injection, schedule: Q01DX001 (ip), vehicle: carboxymethylcellulose (CMC)): 95 % of control
- T/C [10]: 94 % of control
- T/C (dose: 400.0 mg/kg/injection, schedule: Q01DX001 (ip), vehicle: carboxymethylcellulose (CMC)): 97 % of control
- T/C [12]: 98 % of control

Compound: NC(Cc1cc(I)c(Oc2ccc(O)c(I)c2)c(I)c1)C(=O)O (stereo not drawn)
- T/C (dose: 25.0 micrograms/kg/injection, schedule: Q01DX Z (ip), vehicle: saline): 86 % of control
- T/C (dose: 50.0 micrograms/kg/injection, schedule: Q01DX Z (ip), vehicle: saline): 92 % of control
- T/C (dose: 100.0 micrograms/kg/injection, schedule: Q01DX Z (ip), vehicle: saline): 101 % of control
- T/C (dose: 200.0 micrograms/kg/injection, schedule: Q01DX Z (ip), vehicle: saline): 89 % of control

Compound: CC(C)CC1(C)NC(=O)NC1=O (stereo not drawn)
- T/C [11]: 97 % of control
- T/C [10]: 102 % of control
- T/C [12]: 97 % of control

Compound: COc1ccc(C(=O)NCCBr)cc1[N+](=O)[O-]
- T/C [1]: 108 % of control
- T/C [5]: 97 % of control
- T/C [2]: 103 % of control
- T/C [7]: 101 % of control
- T/C [3]: 98 % of control
- T/C [9]: 111 % of control

Compound: CCNS(=O)(=O)c1cccc(C(N)=S)c1
- T/C (dose: 100.0 mg/kg/injection, schedule: Q01DX001 (ip), vehicle: gum acacia): 103 % of control
- T/C (dose: 200.0 mg/kg/injection, schedule: Q01DX001 (ip), vehicle: gum acacia): 105 % of control
- T/C (dose: 400.0 mg/kg/injection, schedule: Q01DX001 (ip), vehicle: gum acacia): 106 % of control

Compound: COc1cc2c(c(OC)c1OC)-c1ccc(SC)c(=O)cc1C(N=C(NC1OCC(OC(C)=O)C(OC(C)=O)C1OC(C)=O)SN(NC(=O)OCc1ccccc1)C(=O)OCc1ccccc1)CC2 (stereo not drawn)
- T/C (dose: 25.0 mg/kg/injection, schedule: Q01DX001 (ip), vehicle: saline with Tween-80): 95 % of control
- T/C (dose: 50.0 mg/kg/injection, schedule: Q01DX001 (ip), vehicle: saline with Tween-80): 95 % of control
- T/C (dose: 100.0 mg/kg/injection, schedule: Q01DX001 (ip), vehicle: saline with Tween-80): 100 % of control

Compound: CCC(=O)c1cc([N+](=O)[O-])ccc1NC(C)=O
- T/C [11]: 97 % of control
- T/C [10]: 94 % of control
- T/C [12]: 94 % of control

Compound: Nc1cccc2ccc(S(=O)(=O)O)cc12
- T/C (dose: 100.0 mg/kg/injection, schedule: Q01DX009 (ip), vehicle: saline): 106 % of control
- T/C (dose: 200.0 mg/kg/injection, schedule: Q01DX009 (ip), vehicle: saline): 97 % of control
- T/C (dose: 400.0 mg/kg/injection, schedule: Q01DX009 (ip), vehicle: saline): 101 % of control

Compound: CC/C(=C\c1ccccc1)[N+](=O)[O-]
- T/C (dose: 25.0 mg/kg/injection, schedule: Q01DX009 (ip), vehicle: Klucel (hydroxypropylcellulose) (HPC)): 102 % of control
- T/C (dose: 25.0 mg/kg/injection, schedule: Q04DX003 (ip), vehicle: Klucel (hydroxypropylcellulose) (HPC)): 97 % of control
- T/C (dose: 50.0 mg/kg/injection, schedule: Q01DX009 (ip), vehicle: Klucel (hydroxypropylcellulose) (HPC)): 98 % of control
- T/C (dose: 50.0 mg/kg/injection, schedule: Q04DX003 (ip), vehicle: Klucel (hydroxypropylcellulose) (HPC)): 90 % of control
- T/C [5]: 103 % of control

Compound: [N-]=[N+]=Nc1ccc(C(=O)O)cc1
- T/C [4]: 100 % of control
- T/C [6]: 100 % of control
- T/C [8]: 103 % of control

Compound: CC(=O)c1c[nH]c2c(O)ccc(O)c12
- T/C (dose: 6.25 mg/kg/injection, schedule: Q04DX002 (ip), vehicle: Klucel (hydroxypropylcellulose) (HPC)): 93 % of control
- T/C (dose: 12.5 mg/kg/injection, schedule: Q04DX002 (ip), vehicle: Klucel (hydroxypropylcellulose) (HPC)): 96 % of control
- T/C (dose: 25.0 mg/kg/injection, schedule: Q04DX002 (ip), vehicle: Klucel (hydroxypropylcellulose) (HPC)): 99 % of control and 107 % of control

Compound: CCN(CC)c1ccc(/C=N/N=C(N)N)cc1
- T/C (dose: 3.8 mg/kg/injection, schedule: Q01DX Z (ip), vehicle: other): 109 % of control
- T/C (dose: 7.5 mg/kg/injection, schedule: Q01DX Z (ip), vehicle: other): 88 % of control
- T/C (dose: 15.0 mg/kg/injection, schedule: Q01DX Z (ip), vehicle: other): 97 % of control
